Data set [1] concerns the target T1, human Kv3.1 channels (hKv3.1) (Homo sapiens, UniProt P48547).
T1 sequence (P48547 1-501 limits assumed): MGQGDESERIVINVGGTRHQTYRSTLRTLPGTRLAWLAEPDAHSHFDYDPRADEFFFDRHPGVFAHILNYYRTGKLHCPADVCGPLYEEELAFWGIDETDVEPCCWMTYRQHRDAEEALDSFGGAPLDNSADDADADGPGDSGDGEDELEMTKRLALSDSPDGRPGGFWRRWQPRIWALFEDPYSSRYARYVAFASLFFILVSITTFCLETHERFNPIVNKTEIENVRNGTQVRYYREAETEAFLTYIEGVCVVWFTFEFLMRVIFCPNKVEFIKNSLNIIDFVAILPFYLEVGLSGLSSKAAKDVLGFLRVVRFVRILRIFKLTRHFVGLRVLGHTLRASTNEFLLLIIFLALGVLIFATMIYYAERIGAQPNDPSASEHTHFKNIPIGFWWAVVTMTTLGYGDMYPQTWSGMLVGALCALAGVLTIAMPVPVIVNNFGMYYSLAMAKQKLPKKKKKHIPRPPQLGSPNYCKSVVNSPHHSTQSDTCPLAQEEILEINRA
The data set can be described thus: Measurement of Kv3 channel modulation: Kv3.1 assay (IonWorks Quattro whole-cell electrophysiology). In kind it is cell-based. The note with it: for Kv3.1 max R %: normalised to maximum effect of reference compound (50 microM); for EC50: read-out: Kv3.1 pEC50 (converted). In general terms: The patch-clamp technique gives a direct electrical read-out from membranes.

Data set [2] is described as follows: Determination of in vivo pharmacokinetic parameters (blood and brain concentrations). The following applies: male, rat. On the procedure:
Adult male rats (Charles River, Italy) are dosed with test compound orally at 1 mg/kg (5 ml/kg, in 5% v/v DMSO, 0.5% w/v HPMC in water) and intravenously at 0.5 mg/kg (2 ml/kg, in 5% v/v DMSO 40% w/v PEG400 in saline). After oral administration, blood samples are collected under deep Isofluorane anesthesia from the portal vein and heart of each rat (1 rat per time point). After intravenous administration, serial blood samples are collected from the lateral tail vein of each rat. Blood and brain samples are collected at a single timepoint of 0.5 h after dose administration for these animals. In all cases, blood samples are collected into potassium EDTA tubes.
A further group of rats (n=1 per test compound) receive a single intravenous administration of the PgP transport inhibitor, Elacridar (3 mg/kg) shortly before the oral administration of the test compound at 1 mg/kg, as above.
Blood and brain samples can be assayed for test compound concentration using a method based on protein precipitation with acetonitrile followed by HPLC/MS-MS analysis with an optimized analytical method.
The concentrations of test compound in blood (expressed as ng/ml) and brain (expressed as ng/g) at the different time points following either oral or intravenous dosing are analysed using a non-compartmental pharmacokinetic model using WinNonLin Professional version 4.1. The following parameters are derived:
Intravenous dosing: Maximum concentration over time (Cmax), integrated concentration over time (AUC), clearance (Clb), volume of distribution (Vss), half-life (t1/2) and Brain/Heart Blood conc @0.5 hr.
Oral dosing: Cmax, time of maximum concentration (Tmax), AUC, bioavailability (F %), fraction absorbed (Fa %), blood to brain ratio (AUC B/B), and Fold-change in AUC B/B in the presence of Elacridar.

[3] abbreviates: Table 2, Example compounds, rounded to one decimal place, some compounds with two data sets (n given in cell).

Values joined by “and” are separate entries in the source; they are usually repeats but may differ in a detail not shown here. Equal values may be shown once. Read-outs that look alike come from different tables or passages of the source.

Take `Cc1ccc(Oc2ccc(-n3c(=O)[nH]c4cccnc43)cn2)cc1OC(F)(F)F` [Example 4, 3-[6-[4-methyl-3-(trifluoromethoxy)phenoxy]-3-pyridyl]-1H-imidazo[4,5-b]pyridin-2-one]: the “Kv3.1 max R %” value in data set [1] (Table 2, Example compounds) is reported as 111%. The EC50 was 1260 nM in data set [1] (setting [3]) and 1260 nM in data set [1] (Table 5, Example compounds).
For `O=c1[nH]c2cccnc2n1-c1cnc(Oc2cccc(OC(F)(F)F)c2)nc1` [Example 17, 3-[2-[3-(trifluoromethoxy)phenoxy]pyrimidin-5-yl]-1H-imidazo[4,5-b]pyridin-2-one], in data set [1] (Table 2, Example compounds), the “Kv3.1 max R %” value was 103% and 125%. In addition, the EC50 in data set [1] (setting [3]) is 1260 nM; in data set [1] (Table 5, Example compounds), 1000 nM. Besides, in data set [2] (brain and blood, oral dosing 1 mg/kg, read-out: AUC B/B (brain/blood) ratio), the Kp is 0.45. Further, in data set [2] (brain and heart blood, intravenous, 0.5 mg/kg, 0.5 h after dose administration, read-out: Brain/Heart Blood conc @0.5 hr), the Kp at 0.5 h is 0.76.
Consider `Cc1ccc(Oc2ncc(-n3c(=O)[nH]c4cccnc43)cn2)cc1OC(F)(F)F` [Example 32, 3-[2-[4-methyl-3-(trifluoromethoxy)phenoxy]pyrimidin-5-yl]-1H-imidazo[4,5-b]pyridin-2-one], for which the “Kv3.1 max R %” value in data set [1] (Table 2, Example compounds) amounted to 174%. In addition, the EC50 in data set [1] (setting [3]) was 1580 nM; in data set [1] (Table 5, Example compounds), 1580 nM.

These data come from US20240327406A1, “POTASSIUM CHANNEL MODULATORS” (Autifony Therapeutics Limited, priority 2021, published 2024).
